# Test results from ChEMBL document CHEMBL3885881, “DrugMatrix”.
# Species: Rattus norvegicus
# Assay: DrugMatrix - Regimen: Daily Repeat
# Type: toxicity, organism-based, Sprague-Dawley
# Parameters: regimen Daily Repeat, gender Male, age 6-8 weeks
# Settings: in vivo, po, route oral GAVAGE, vehicle .5 % CMC; for ABSOLUTE BASOPHIL / ABSOLUTE EOSINOPHIL / ABSOLUTE LYMPHOCYTE / ABSOLUTE MONOCYTE / ABSOLUTE SEGMENTED NEUTROPHIL / BASOPHIL / EOSINOPHIL / ERYTHROCYTE COUNT / HEMATOCRIT / HEMOGLOBIN / LEUKOCYTE COUNT / LYMPHOCYTE / MEAN CORPUSCULAR HEMOGLOBIN / MEAN CORPUSCULAR HEMOGLOBIN CONCENTRATION / MEAN CORPUSCULAR VOLUME / MONOCYTE / NEUTROPHIL / NUCLEATED RED BLOOD CELLS / PLATELET COUNT: tissue Blood; for ALANINE AMINOTRANSFERASE / ALBUMIN / ALKALINE PHOSPHATASE / ASPARTATE AMINOTRANSFERASE / BLOOD UREA NITROGEN / CARBON DIOXIDE / CHLORIDE / CHOLESTEROL / CREATINE PHOSPHOKINASE / CREATININE / GLUCOSE / LACTATE DEHYDROGENASE / LIPASE / PHOSPHORUS / POTASSIUM / SODIUM / TOTAL BILIRUBIN / TOTAL PROTEIN / URIC ACID: tissue Plasma
# [1] = 0 mg/kg, 72 h, dose level Control, time 3 day
# [2] = 0 mg/kg, 120 h, dose level Control, time 5 day
# [3] = 15 mg/kg, 72 h, dose level Low, time 3 day
# [4] = 15 mg/kg, 120 h, dose level Low, time 5 day
smiles,measurement,setting,value
C[C@@H]1O[C@@H](O[C@H]2C[C@@H](O)[C@]3(CO)[C@H]4[C@H](O)C[C@]5(C)[C@@H](C6=CC(=O)OC6)CC[C@]5(O)[C@@H]4CC[C@]3(O)C2)[C@H](O)[C@H](O)[C@H]1O [OUABAIN],ABSOLUTE BASOPHIL,[1],0 CELLS/uL
same,ABSOLUTE EOSINOPHIL,[1],130.33 CELLS/uL
same,ABSOLUTE LYMPHOCYTE,[1],10030.67 CELLS/uL
same,ABSOLUTE MONOCYTE,[1],41 CELLS/uL
same,ABSOLUTE SEGMENTED NEUTROPHIL,[1],1298 CELLS/uL
same,BASOPHIL,[1],0%
same,EOSINOPHIL,[1],1%
same,ERYTHROCYTE COUNT,[1],5.22 x10E6/uL
same,HEMATOCRIT,[1],33.53%
same,HEMOGLOBIN,[1],12.73 G/DL
same,LEUKOCYTE COUNT,[1],11.5 x10E3/uL
same,LYMPHOCYTE,[1],87.67%
same,MEAN CORPUSCULAR HEMOGLOBIN,[1],24.45 pg
same,MEAN CORPUSCULAR HEMOGLOBIN CONCENTRATION,[1],37.97 G/DL
same,MEAN CORPUSCULAR VOLUME,[1],64.33 fL
same,MONOCYTE,[1],0.33%
same,NEUTROPHIL,[1],11%
same,NUCLEATED RED BLOOD CELLS,[1],0 /100WBC
same,PLATELET COUNT,[1],1310.5 x10E3/uL
same,ALANINE AMINOTRANSFERASE,[1],52 u/L
same,ALBUMIN,[1],4.22 G/DL
same,ALKALINE PHOSPHATASE,[1],340.17 u/L
same,ASPARTATE AMINOTRANSFERASE,[1],87.5 u/L
same,BLOOD UREA NITROGEN,[1],15.17 mg/dL
same,CARBON DIOXIDE,[1],25.5 mmol/L
same,CHLORIDE,[1],101.83 MEQ/L
same,CHOLESTEROL,[1],68.17 mg/dL
same,CREATINE PHOSPHOKINASE,[1],379.67 u/L
same,CREATININE,[1],0.17 mg/dL
same,GLUCOSE,[1],181.67 mg/dL
same,LACTATE DEHYDROGENASE,[1],256.17 u/L
same,LIPASE,[1],8 u/L
same,PHOSPHORUS,[1],12.1 mg/dL
same,POTASSIUM,[1],5.88 MEQ/L
same,SODIUM,[1],143.67 MEQ/L
same,TOTAL BILIRUBIN,[1],0.18 mg/dL
same,TOTAL PROTEIN,[1],5.92 G/DL
same,URIC ACID,[1],1.7 mg/dL
same,ABSOLUTE BASOPHIL,[2],0 CELLS/uL
same,ABSOLUTE EOSINOPHIL,[2],31 CELLS/uL
same,ABSOLUTE LYMPHOCYTE,[2],9599.17 CELLS/uL
same,ABSOLUTE MONOCYTE,[2],52.83 CELLS/uL
same,ABSOLUTE SEGMENTED NEUTROPHIL,[2],1050.33 CELLS/uL
same,BASOPHIL,[2],0%
same,EOSINOPHIL,[2],0.33%
same,ERYTHROCYTE COUNT,[2],5.53 x10E6/uL
same,HEMATOCRIT,[2],35.8%
same,HEMOGLOBIN,[2],13.53 G/DL
same,LEUKOCYTE COUNT,[2],10.73 x10E3/uL
same,LYMPHOCYTE,[2],89%
same,MEAN CORPUSCULAR HEMOGLOBIN,[2],24.47 pg
same,MEAN CORPUSCULAR HEMOGLOBIN CONCENTRATION,[2],37.82 G/DL
same,MEAN CORPUSCULAR VOLUME,[2],64.7 fL
same,MONOCYTE,[2],0.5%
same,NEUTROPHIL,[2],10.17%
same,NUCLEATED RED BLOOD CELLS,[2],0 /100WBC
same,PLATELET COUNT,[2],1028.5 x10E3/uL
same,ALANINE AMINOTRANSFERASE,[2],45.33 u/L
same,ALBUMIN,[2],4.33 G/DL
same,ALKALINE PHOSPHATASE,[2],351.83 u/L
same,ASPARTATE AMINOTRANSFERASE,[2],73.5 u/L
same,BLOOD UREA NITROGEN,[2],17.83 mg/dL
same,CARBON DIOXIDE,[2],24.67 mmol/L
same,CHLORIDE,[2],100 MEQ/L
same,CHOLESTEROL,[2],67 mg/dL
same,CREATINE PHOSPHOKINASE,[2],284 u/L
same,CREATININE,[2],0.2 mg/dL
same,GLUCOSE,[2],152.33 mg/dL
same,LACTATE DEHYDROGENASE,[2],108.67 u/L
same,LIPASE,[2],8.17 u/L
same,PHOSPHORUS,[2],11.17 mg/dL
same,POTASSIUM,[2],6.14 MEQ/L
same,SODIUM,[2],144.68 MEQ/L
same,TOTAL BILIRUBIN,[2],0.22 mg/dL
same,TOTAL PROTEIN,[2],6.08 G/DL
same,URIC ACID,[2],1.27 mg/dL
same,ABSOLUTE BASOPHIL,[3],0 CELLS/uL
same,ABSOLUTE EOSINOPHIL,[3],189.33 CELLS/uL
same,ABSOLUTE LYMPHOCYTE,[3],10886.33 CELLS/uL
same,ABSOLUTE MONOCYTE,[3],47.33 CELLS/uL
same,ABSOLUTE SEGMENTED NEUTROPHIL,[3],1443.67 CELLS/uL
same,BASOPHIL,[3],0%
same,EOSINOPHIL,[3],1.33%
same,ERYTHROCYTE COUNT,[3],5.55 x10E6/uL
same,HEMATOCRIT,[3],35.67%
same,HEMOGLOBIN,[3],13.2 G/DL
same,LEUKOCYTE COUNT,[3],12.57 x10E3/uL
same,LYMPHOCYTE,[3],86.67%
same,MEAN CORPUSCULAR HEMOGLOBIN,[3],23.77 pg
same,MEAN CORPUSCULAR HEMOGLOBIN CONCENTRATION,[3],37 G/DL
same,MEAN CORPUSCULAR VOLUME,[3],64.2 fL
same,MONOCYTE,[3],0.33%
same,NEUTROPHIL,[3],11.67%
same,NUCLEATED RED BLOOD CELLS,[3],0 /100WBC
same,PLATELET COUNT,[3],1296 x10E3/uL
same,ALANINE AMINOTRANSFERASE,[3],52.67 u/L
same,ALBUMIN,[3],4.2 G/DL
same,ALKALINE PHOSPHATASE,[3],382.67 u/L
same,ASPARTATE AMINOTRANSFERASE,[3],73.67 u/L
same,BLOOD UREA NITROGEN,[3],15 mg/dL
same,CARBON DIOXIDE,[3],27 mmol/L
same,CHLORIDE,[3],99 MEQ/L
same,CHOLESTEROL,[3],70.33 mg/dL
same,CREATINE PHOSPHOKINASE,[3],215.33 u/L
same,CREATININE,[3],0.16 mg/dL
same,GLUCOSE,[3],166.33 mg/dL
same,LACTATE DEHYDROGENASE,[3],88 u/L
same,LIPASE,[3],8 u/L
same,PHOSPHORUS,[3],12.23 mg/dL
same,POTASSIUM,[3],6.54 MEQ/L
same,SODIUM,[3],144.1 MEQ/L
same,TOTAL BILIRUBIN,[3],0.27 mg/dL
same,TOTAL PROTEIN,[3],5.93 G/DL
same,URIC ACID,[3],1.97 mg/dL
same,ABSOLUTE BASOPHIL,[4],0 CELLS/uL
same,ABSOLUTE EOSINOPHIL,[4],66.67 CELLS/uL
same,ABSOLUTE LYMPHOCYTE,[4],12127.33 CELLS/uL
same,ABSOLUTE MONOCYTE,[4],105.67 CELLS/uL
same,ABSOLUTE SEGMENTED NEUTROPHIL,[4],1600.33 CELLS/uL
same,BASOPHIL,[4],0%
same,EOSINOPHIL,[4],0.67%
same,ERYTHROCYTE COUNT,[4],5.76 x10E6/uL
same,HEMATOCRIT,[4],36.63%
same,HEMOGLOBIN,[4],13.7 G/DL
same,LEUKOCYTE COUNT,[4],13.9 x10E3/uL
same,LYMPHOCYTE,[4],88.33%
same,MEAN CORPUSCULAR HEMOGLOBIN,[4],23.77 pg
same,MEAN CORPUSCULAR HEMOGLOBIN CONCENTRATION,[4],37.4 G/DL
same,MEAN CORPUSCULAR VOLUME,[4],63.6 fL
same,MONOCYTE,[4],0.67%
same,NEUTROPHIL,[4],10.33%
same,NUCLEATED RED BLOOD CELLS,[4],0 /100WBC
same,PLATELET COUNT,[4],1337.67 x10E3/uL
same,ALANINE AMINOTRANSFERASE,[4],44 u/L
same,ALBUMIN,[4],4.3 G/DL
same,ALKALINE PHOSPHATASE,[4],417.67 u/L
same,ASPARTATE AMINOTRANSFERASE,[4],84.33 u/L
same,BLOOD UREA NITROGEN,[4],17.33 mg/dL
same,CARBON DIOXIDE,[4],25.67 mmol/L
same,CHLORIDE,[4],102.33 MEQ/L
same,CHOLESTEROL,[4],74.67 mg/dL
same,CREATINE PHOSPHOKINASE,[4],260 u/L
same,CREATININE,[4],0.26 mg/dL
same,GLUCOSE,[4],167.33 mg/dL
same,LACTATE DEHYDROGENASE,[4],187.67 u/L
same,LIPASE,[4],8.67 u/L
same,PHOSPHORUS,[4],11.83 mg/dL
same,POTASSIUM,[4],6.55 MEQ/L
same,SODIUM,[4],145.07 MEQ/L
same,TOTAL BILIRUBIN,[4],0.17 mg/dL
same,TOTAL PROTEIN,[4],6.2 G/DL
same,URIC ACID,[4],1.8 mg/dL
